According to patent US5560912A, “Method for inhibiting growth of helicobacter pylori” (Technion Research & Development Foundation Ltd., priority 1994, dated 1996):

Assays:
[1] = test system: Helicobacter pylori; assay: Filter paper disc diffusion method, zone of inhibition; format: cell-based; conditions: read-out: Inhibition zone
[2] = test system: Helicobacter pylori; assay: as above; format: cell-based
Experimental: The inhibition effect was determined in-vitro, using the "Filter paper disc diffusion method" as described by Laura L. Zaika, (journal of Food Safety 9,1988,p.97-118). According to the method used, an extract of the plant was deposited on a small filter paper disc having a diameter of 0.5 cm and then placed in the center of a Petri plate containing agar growth medium inoculated with the test microorganism. The plate was incubated under microaerophilic conditions in anaerobic jars at 37° C. for 3 to 4 days and observed for microbial growth. If the extract of Cinnamon exerts antimicrobial activity, the microorganism will not grow in an area surrounding the filter paper disc. This clear area, defined as "zone of inhibition" was measured and recorded in mm. This method is well-known also for determining the activity of an antibiotic compound, by measuring the zone of inhibition arround a disc containing a sample of the antibacterial compound to be tested.
The assays used for the bacterial growth inhibition were as follows:
Two organic Cinnamon extracts, methylene chloride and ethanol in concentrations of 0.05 mg and 0.1 mg respectively were spotted on standard discs and placed on Egg Yolk Emulsion agar plate center which was previously layered with 0,1 ml of a bacterial suspension having a concentration of 10^7 CFU ml.
After the required incubation, the inhibition zone was recorded. In FIG. 2,there are presented the sensitivity of Helicobacter pylori, as determined by the inhibition diameter, using two organic extracts of Cinnamon (0,05 mg and 0.1 mg dry weight) compared with antibiotics: ampicillin (0.0. mg), tetracycline (0.03 mg), erythromycine (0.015 mg) nalidixic acid (0.03 mg), cotrimoxazole (0.025 mg). In these tests, two isolates of H.pylori were used.
The tests were carried out on Egg Yolk Emulsion agar plate, the Cinnamon concentrations on disk were in the range of […].

[3] = Helicobacter pylori, read-out: Inhibition zone

Row | SMILES | zone of inhibition at 2000 µg/disc [1] [mm] | inhibition of H. pylori growth, in words [2] | other results
1 | CC1=CCC2CC1C2(C)C (stereo not drawn) [Alpha-pinene] | 18 | – | –
2 | CC1=CC=C(C(C)C)CC1 [Alpha-terpinene] | 17 | only a lower inhibition zone | –
3 | CC1=CCC(O)(C(C)C)CC1 (stereo not shown) [Terpinen-4-ol] | 22 | – | –
4 | OC/C=C/c1ccccc1 [Cinnamic alcohol] | – | only a lower inhibition zone | zone of inhibition at 200 µg/disc [2, 3]: 12 mm; zone of inhibition at 400 µg/disc ([2]; Helicobacter pylori, 0.4 mg/disk): 20 mm
5 | COc1ccccc1/C=C/C=O | – | beneficial effect on the inhibition but with a higher concentration | Inhibition zone ([2]; 0.2 mg/disk, * = substantial complete inhibition): 44 mm; Inhibition zone ([2]; 0.4 mg/disk): 57 mm; Inhibition zone ([2]; 0.6 mg/disk): 68 mm
6 | O=C(OCc1ccccc1)c1ccccc1 [Benzyl-benzoate] | 17 | – | –
7 | O=CC=Cc1ccccc1 [Cinnamaldehyde] | – | substantial complete inhibition | zone of inhibition at 50 µg/disc [2, 3]: 45 mm; zone of inhibition at 100 µg/disc [2, 3]: 60 mm; zone of inhibition at 200 µg/disc [2, 3]: > 90 mm
